Experimental findings from US20130072448A1, “Drug Combination Comprising A Glycolysis Inhibitor And A Tyrosine Kinase Inhibitor” (URIFER LTD., priority 2011, published 2013) are described below.

Each structure is given as a SMILES string.

The subject of data set [1] is human foreskin cells (FS11). As to the kind of experiment: Dead cells fraction by FACS (PI), normal FS11 cells. Particulars: up to 1000 μM DG and 1 μM compound 0260, alone or in combinations. It is filed as cell-based. The procedure: (§1) Florescence assisted cell sorting (FACS) was performed as described in Pasder O, et al. [Pasder O, et al. Oncogene 2006; 25(30):4194-206]. Cells were rinsed twice with cold PBS, and then harvested by treatment with trypsin. Suspended cells were washed twice in 10 ml cold PBS and centrifuged at 500 g for 5 min. In cell cycle analyses, the pellet was resuspended in 200 μl cold PBS and cells were stained in the dark with 200 μl propidium iodide (PI) solution (20 mM Tris, pH 8, 1 mM NaCl, 0.1% (v/v) NP-40, 1.4 mg/ml RNase A, 0.05 mg/ml PI) for 30 min at […]. In experiments to determine the fraction of dead cells in a population of cells, the detergent NP-40 was omitted. The total cellular DNA content was determined using a Becton Dickinson flow cytometer (FACSCalibur). The data were analyzed using Cell Quest Pro software (Becton Dickinson) and ModFit LT software.
(§2) To study the effect of various combinations of Fer and glycolysis inhibitors on cell cycle progression, various concentrations of 0260 and DG alone and in combination were tested in Hep3B liver cancer cells and on human foreskin cells (FS11) as a non-cancer controls.

The subject of another data set is Hep3B liver cancer cells. As to the kind of experiment: Dead cells fraction by FACS (PI), Hep3B. The format is cell-based, human. The note with it: compounds alone or in combination. The procedure:
as §1, §2
A general note: Flow cytometry measures light scatter and fluorescence of single cells or particles in a stream.

For data set [2], the system named is HCT116 colon cancer cells. In words: Dead cells fraction by FACS (PI), HCT116. The format is cell-based. The note with it: compounds alone or in combination. The procedure:
as §1

Another data set has as its target T1, Fer (Homo sapiens, UniProt P16591).
T1 construct: endogenous in cells; host or cells: HCT116 colon carcinoma cells
In words: in-vivo Fer activity assay: auto-phosphorylation of Fer in HCT116 CC cells (IP, anti-phosphotyrosine western blot). Particulars: serum deprived 24 h with 2 μM 0260, 20 mM H2O2 15 min before harvest. The format is cell-based. The method, then:
HCT116 CC cells were deprived of serum for 24 h in the presence of 2 μM 0260 or 0.5% DMSO (the solvent). 15 min before harvest cells were treated with 20 mM H2O2— for activation and auto-phosphorylation of Fer. Protein lysates were prepared from cells: starved in the presence of DMSO and treated with H2O2 (1), starved in the presence of 0260 and treated with H2O2 (2), and from untreated cells (3). Fer was immuno-precipitated, resolved in SDS-PAGE and reacted with anti-phosphotyrosine (pY— upper panel) or anti-Fer antibodies (lower panel) in a western blot analysis.
After extraction of cellular proteins, a protein sample of 750-1000 μg was diluted 3fold with TGET buffer (20 mM Tris-HCl (Ph7.5), 1 mM EDTA, 0.1% Triton X100 and 10% Glycerol) with […] and protease inhibitors and incubated with the indicated antibody at a dilution of 1:100 overnight at 4° C. with shaking. At the end of the incubation, 25 μl Protein A/G suspension was added bound to agarose beads. The mixture was shaken for another 90 min at 4° C. The immune complex precipitate was obtained after centrifugation for 20 min at maximum speed and then washed three times in extraction buffer: twice with buffer TGET NaCl 150 mM and once with TGET NaCl 75 mM. The precipitate was suspended in 2× loading buffer. […]

T1 sequence (P16591 whole entry): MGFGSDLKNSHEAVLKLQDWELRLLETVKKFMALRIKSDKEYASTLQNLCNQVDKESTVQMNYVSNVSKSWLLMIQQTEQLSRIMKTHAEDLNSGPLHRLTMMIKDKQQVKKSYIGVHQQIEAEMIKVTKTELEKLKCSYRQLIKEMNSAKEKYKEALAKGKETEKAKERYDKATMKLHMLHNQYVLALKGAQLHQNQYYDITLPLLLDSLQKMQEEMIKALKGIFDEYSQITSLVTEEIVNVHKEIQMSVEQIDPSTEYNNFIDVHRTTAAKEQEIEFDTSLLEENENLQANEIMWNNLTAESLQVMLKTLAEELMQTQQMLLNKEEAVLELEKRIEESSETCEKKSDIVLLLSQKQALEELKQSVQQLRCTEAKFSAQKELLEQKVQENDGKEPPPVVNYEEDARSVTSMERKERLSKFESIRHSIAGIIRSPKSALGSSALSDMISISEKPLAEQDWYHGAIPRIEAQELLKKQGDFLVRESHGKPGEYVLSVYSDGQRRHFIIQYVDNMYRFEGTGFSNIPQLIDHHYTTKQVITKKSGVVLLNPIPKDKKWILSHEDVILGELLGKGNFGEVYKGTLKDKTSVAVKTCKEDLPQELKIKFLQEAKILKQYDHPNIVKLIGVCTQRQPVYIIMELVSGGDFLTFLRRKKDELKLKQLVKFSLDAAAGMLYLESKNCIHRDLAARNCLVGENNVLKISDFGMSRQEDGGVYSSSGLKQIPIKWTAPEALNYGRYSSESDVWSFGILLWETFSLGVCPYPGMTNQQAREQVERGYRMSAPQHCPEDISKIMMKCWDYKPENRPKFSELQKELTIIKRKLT

Regarding `O=CC[C@@H](O)[C@H](O)[C@H](O)CO` [DG, 2-deoxyglucose, reference compound], the dead cells fraction result in data set [1] was “only minor effects”; with Hep3B liver cancer cells, “only minor effect”; in data set [2] it was “only minor effect”.
As to `CC(C)c1ccc(-c2cn3nc(N4CCC(CN5CCN(C)CC5)CC4)sc3n2)cc1` [compound 0260, 6-(4-isopropyl-phenyl)-2-{4-[(4-methyl-piperazin-1-yl)methyl]piperidin-1-yl}imidazo[2,1-b][1,3,4]thiadiazole], the “inhibition of Fer auto-phosphorylation” value against Fer is given as “efficient inhibition”. The dead cells fraction result in data set [1] is given as “only minor effects”; with Hep3B liver cancer cells it was “only minor effect”; in data set [2] it was “only minor effect”.
